Experimental data as given in the supplement of paper PMC10307832.

What was measured:
Assay in all cases: relative viability (nuclei count vs DMSO), 5 days (fraction); higher = more cells survive
PAC-1 + Dasatinib = compound: C=CCc1cccc(/C=N/NC(=O)CN2CCN(Cc3ccccc3)CC2)c1O [PAC-1] + Cc1nc(Nc2ncc(C(=O)Nc3c(C)cccc3Cl)s2)cc(N2CCN(CCO)CC2)n1 [Dasatinib] (partner 0.075 µM)
In short: (§1)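 Lung cancer cell lines, seeded in 1536-well plates, were treated the following day by pin tool with a single drug or with five library-drug doses (not always all listed) in √10 steps on top of a fixed anchor-drug dose. Cells were fixed and nuclei stained in one step after 5 days, and nuclei were counted. Relative viability is the nuclei count for treated wells divided by that for vehicle wells, reported as medians of duplicate plates.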

Ibrutinib + Tozasertib = compound: C=CC(=O)N1CCC[C@@H](n2nc(-c3ccc(Oc4ccccc4)cc3)c3c(N)ncnc32)C1 [Ibrutinib] + Cc1cc(Nc2cc(N3CCN(C)CC3)nc(Sc3ccc(NC(=O)C4CC4)cc3)n2)n[nH]1 [Tozasertib] (partner 0.1 µM)
In short: as §1

PAC-1 + Olaparib = compound: C=CCc1cccc(/C=N/NC(=O)CN2CCN(Cc3ccccc3)CC2)c1O [PAC-1] + O=C(c1cc(Cc2n[nH]c(=O)c3ccccc23)ccc1F)N1CCN(C(=O)C2CC2)CC1 [Olaparib] (partner 8 µM)
In short: as §1

Ibrutinib + Dasatinib = compound: C=CC(=O)N1CCC[C@@H](n2nc(-c3ccc(Oc4ccccc4)cc3)c3c(N)ncnc32)C1 [Ibrutinib] + Cc1nc(Nc2ncc(C(=O)Nc3c(C)cccc3Cl)s2)cc(N2CCN(CCO)CC2)n1 [Dasatinib] (partner 0.075 µM)
In short: as §1

SK-MES-1
relative viability (PAC-1 + Dasatinib; first compound 0.02 µM): 0.359 | relative viability (PAC-1 + Dasatinib; first compound 0.06325 µM): 0.516 | relative viability (PAC-1 + Dasatinib; first compound 0.2 µM): 0.371 | relative viability (PAC-1 + Dasatinib; first compound 2 µM): 0.401 | relative viability (Ibrutinib + Tozasertib; first compound 0.005 µM): 0.997 | relative viability (Ibrutinib + Tozasertib; first compound 0.01581 µM): 0.872 | relative viability (Ibrutinib + Tozasertib; first compound 0.05 µM): 0.965 | relative viability (Ibrutinib + Tozasertib; first compound 0.1581 µM): 1.03 | relative viability (Ibrutinib + Tozasertib; first compound 0.5 µM): 0.669 | relative viability (PAC-1 + Olaparib; first compound 0.02 µM): 0.717 | relative viability (PAC-1 + Olaparib; first compound 0.06325 µM): 0.711 | relative viability (PAC-1 + Olaparib; first compound 0.2 µM): 0.635 | relative viability (PAC-1 + Olaparib; first compound 2 µM): 0.437 | relative viability (Ibrutinib + Dasatinib; first compound 0.005 µM): 0.281 | relative viability (Ibrutinib + Dasatinib; first compound 0.01581 µM): 0.211 | relative viability (Ibrutinib + Dasatinib; first compound 0.05 µM): 0.194 | relative viability (Ibrutinib + Dasatinib; first compound 0.1581 µM): 0.38 | relative viability (Ibrutinib + Dasatinib; first compound 0.5 µM): 0.178
